Tests used:
Type in all cases: in vivo
[1] = system: Abutilon theophrasti Medic.; test: Bioassay of herbicidal activity in greenhouse (further screening); settings: post-emergence
Protocol: (§1) Determination of herbicidal activity of compounds of the present invention against weeds was carried out by the following procedures:
(§2) Seeds of monocotyledonous and dicotyledonous weeds were sown in nutrition soil in paper pot (7 cm diameter), covered with soil in 1 cm and grown in the greenhouse under good growth conditions (temperature, atmospheric humidity, water supply). The compounds of the present invention as emulsifiable concentrate, were applied in pre-emergence and post-emergence treatment by track sprayer (Engineer Research Ltd., pressure 1.95 kg/cm^2, volume 500 L/hm^2, track speed 1.48 km/h). Pre-emergence treatment was conducted after seeding 24 hours and post-emergence treatment was done when the respective weeds reached predetermined leaf stage (grass weed 2- to 3-leaf stage, broad-leaf weed 2- to 4-leaf stage), the state of growth of the respective weeds were visually observed to determine the growth inhibition rate (%) in accordance with the following evaluation standard.
(§3) Growth inhibition rate (%): 0=no discernible action: 100=all weeds dead or not emerged.

[2] = system: Echinochloa crus-galli (L.) Beauv.; test: as above; settings: post-emergence
Protocol: as §1, §2, §3

[3] = system: Setaria glauca (L.) Beauv.; test: as above; settings: post-emergence
Protocol: as §1, §2, §3

[4] = system: Zinnia elegans Jacq.; test: as above; settings: post-emergence
Protocol: as §1, §2, §3

[5] = system: broad-leaf weeds and grass weeds; test: General screening of herbicidal activity in greenhouse; settings: 1000 g a.i./hm^2;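 also: 0 means no visible effect and 100 means all weeds dead or not emerged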
Protocol: as §1, §2, §3

SMILES	Growth inhibition rate, Post-emergence treatment, Abutilon theophrasti Medic. ([1]; dose 7.5 g a.i./hm^2)	Growth inhibition rate, Post-emergence treatment, Abutilon theophrasti Medic. ([1]; dose 15 g a.i./hm^2)	Growth inhibition rate, Post-emergence treatment, Abutilon theophrasti Medic. ([1]; dose 30.0 g a.i./hm^2)	Growth inhibition rate, Post-emergence treatment, Abutilon theophrasti Medic. ([1]; dose 60.0 g a.i./hm^2)	Growth inhibition rate, Post-emergence treatment, Abutilon theophrasti Medic. ([1]; dose 120.0 g a.i./hm^2)	Growth inhibition rate, Post-emergence treatment, Echinochloa crus-galli (L.) Beauv. ([2]; dose 7.5 g a.i./hm^2)	Growth inhibition rate, Post-emergence treatment, Echinochloa crus-galli (L.) Beauv. ([2]; dose 15 g a.i./hm^2)	Growth inhibition rate, Post-emergence treatment, Echinochloa crus-galli (L.) Beauv. ([2]; dose 30.0 g a.i./hm^2)	Growth inhibition rate, Post-emergence treatment, Echinochloa crus-galli (L.) Beauv. ([2]; dose 60.0 g a.i./hm^2)	Growth inhibition rate, Post-emergence treatment, Echinochloa crus-galli (L.) Beauv. ([2]; dose 120.0 g a.i./hm^2)	Growth inhibition rate, Post-emergence treatment, Setaria glauca (L.) Beauv. ([3]; dose 7.5 g a.i./hm^2)	Growth inhibition rate, Post-emergence treatment, Setaria glauca (L.) Beauv. ([3]; dose 15 g a.i./hm^2)	Growth inhibition rate, Post-emergence treatment, Setaria glauca (L.) Beauv. ([3]; dose 30.0 g a.i./hm^2)	Growth inhibition rate, Post-emergence treatment, Setaria glauca (L.) Beauv. ([3]; dose 60.0 g a.i./hm^2)	Growth inhibition rate, Post-emergence treatment, Setaria glauca (L.) Beauv. ([3]; dose 120.0 g a.i./hm^2)	Growth inhibition rate, Post-emergence treatment, Zinnia elegans Jacq. ([4]; dose 7.5 g a.i./hm^2)	Growth inhibition rate, Post-emergence treatment, Zinnia elegans Jacq. ([4]; dose 15 g a.i./hm^2)	Growth inhibition rate, Post-emergence treatment, Zinnia elegans Jacq. ([4]; dose 30.0 g a.i./hm^2)	Growth inhibition rate, Post-emergence treatment, Zinnia elegans Jacq. ([4]; dose 60.0 g a.i./hm^2)	Growth inhibition rate, Post-emergence treatment, Zinnia elegans Jacq. ([4]; dose 120.0 g a.i./hm^2)	further results
COC(=O)C1(C)CC(c2cc(-n3c(=O)cc(C(F)(F)F)n(C)c3=O)c(F)cc2Cl)=NO1 (stereo not drawn) [Compound 5]	100%	100%	100%	100%	100%	45%	95%	100%	100%	100%	60%	65%	100%	100%	100%	40%	45%	98%	100%	100%	pre-emergence and post-emergence herbicidal activity against broad-leaf weeds and grass weeds [5]: good
CCCOC(=O)C1(C)CC(c2cc(-n3c(=O)cc(C(F)(F)F)n(C)c3=O)c(F)cc2Cl)=NO1 (stereo not drawn) [Compound 7]	75%	98%	100%	100%	100%	25%	90%	98%	100%	100%	55%	90%	90%	100%	100%	55%	60%	75%	98%	100%	pre-emergence and post-emergence herbicidal activity against broad-leaf weeds and grass weeds [5]: good
CCCCOC(=O)C1(C)CC(c2cc(-n3c(=O)cc(C(F)(F)F)n(C)c3=O)c(F)cc2Cl)=NO1 (stereo not drawn) [Compound 8]	100%	100%	100%	100%	100%	70%	95%	100%	100%	100%	60%	80%	100%	100%	100%	90%	95%	95%	100%	100%	pre-emergence and post-emergence herbicidal activity against broad-leaf weeds and grass weeds [5]: good
CC(C)OC(=O)C1(C)CC(c2cc(-n3c(=O)cc(C(F)(F)F)n(C)c3=O)c(F)cc2Cl)=NO1 (stereo not drawn) [Compound 10]	100%	100%	100%	100%	100%	90%	98%	100%	100%	100%	90%	100%	100%	100%	100%	100%	100%	100%	100%	100%	pre-emergence and post-emergence herbicidal activity against broad-leaf weeds and grass weeds [5]: good

Reference: patent US10550111B2, “Pyrimidine urea compound containing isoxazolines and use thereof” (SHENYANG SINOCHEM AGROCHEMICALS R&D CO., LTD, priority 2014, dated 2020)
